PubChem BioAssay (NCI)
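96-well plates; 48 h exposure; 5 concentrations. Endpoints by linear interpolation between flanking doses. Not reached: highest tested concentration assigned. Definition used: TGI = concentration required for complete inhibition of growth.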

How the values were obtained:
Assay in all cases: NCI-60 cell line screen, 48 h
[1] = system: A498 renal
[2] = system: A549 NSCLC
[3] = system: CCRF-CEM leukemia
[4] = system: COLO 205 colon
[5] = system: DLD-1 colon
[6] = system: DMS 114 small cell lung
[7] = system: DMS 273 small cell lung
[8] = system: EKVX NSCLC
[9] = system: HCC-2998 colon
[10] = system: HCT-116 colon
[11] = system: HCT-15 colon
[12] = system: HL-60(TB) leukemia
[13] = system: HOP-18 NSCLC
[14] = system: HOP-92 NSCLC
[15] = system: IGROV1 ovarian
[16] = system: K-562 leukemia
[17] = system: KM12 colon
[18] = system: KM20L2 colon
[19] = system: LOX IMVI melanoma
[20] = system: LXFL 529 NSCLC
[21] = system: MALME-3M melanoma
[22] = system: MOLT-4 leukemia
[23] = system: NCI-H226 lung
[24] = system: NCI-H460 lung
[25] = system: OVCAR-8 ovarian
[26] = system: RPMI-8226 leukemia
[27] = system: SF-268 CNS
[28] = system: SF-295 CNS
[29] = system: SF-539 CNS
[30] = system: SK-MEL-2 melanoma
[31] = system: SK-MEL-28 melanoma
[32] = system: SK-MEL-5 melanoma
[33] = system: SN12C renal
[34] = system: SNB-75 CNS
[35] = system: SNB-78 CNS
[36] = system: SR leukemia
[37] = system: SW-620 colon
[38] = system: TK-10 renal
[39] = system: U251 CNS
[40] = system: UACC-257 melanoma
[41] = system: XF 498 CNS

CC(SC1=CC(=O)c2c(Cl)ccc(O)c2C1=O)C(=O)O (stereo unspecified)
TGI [1]: > 100 µM
TGI [2]: 48.1 µM
TGI [3]: > 100 µM
TGI [4]: 45.1 µM
TGI [5]: 34.7 µM
TGI [6]: 38.4 µM
TGI [7]: 35.6 µM
TGI [8]: 39.9 µM
TGI [9]: 41.1 µM
TGI [10]: 34.4 µM
TGI [11]: 33.9 µM
TGI [12]: 12.2 µM
TGI [13]: 75.8 µM
TGI [14]: 38.6 µM
TGI [15]: 33.4 µM
TGI [16]: > 100 µM
TGI [17]: 38.3 µM
TGI [18]: > 100 µM
TGI [19]: 21.7 µM
TGI [20]: 29.5 µM
TGI [21]: 37.7 µM
TGI [22]: 57.7 µM
TGI [23]: 57.3 µM
TGI [24]: 69.4 µM
TGI [25]: 36.3 µM
TGI [26]: 76.4 µM
TGI [27]: 44.2 µM
TGI [28]: 33.3 µM
TGI [29]: 32.8 µM
TGI [30]: 33.6 µM
TGI [31]: 32.9 µM
TGI [32]: 27.5 µM
TGI [33]: 30.9 µM
TGI [34]: 31 µM
TGI [35]: 26.3 µM
TGI [36]: 37.9 µM
TGI [37]: 36.2 µM
TGI [38]: 35.3 µM
TGI [39]: 40.2 µM
TGI [40]: 30.3 µM
TGI [41]: 34.2 µM
